These results are taken from patent US8748598B2, “Analogs of 3-O-acetyl-11-keto-beta-boswellic acid” (Laila Nutraceuticals, priority 2004, dated 2014).

Converted amounts (≈) assume the structure as drawn.

The test system of assay [1] is MDA-MB-231. The experiment in a line: MTT cell proliferation assay, MDA-MB-231. It is filed as cell-based, human. The conditions noted are these: Homo sapiens, MDA-MB-231; Table 4. A digest of the protocol: (§1)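 Cells exposed three days to compounds at concentrations up to 10 μg/ml (≤0.5% DMSO), then 0.5 mg/ml MTT for 4 h at 37 °C. Solubilized formazan read at 540 nm; IC50 calculated from quadruplicate wells.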
A general note: Formazan colour is commonly taken as a measure of viable cells.

Another assay relates to MCF-7. The experiment in a line: MTT cell proliferation assay, MCF-7. It is filed as cell-based, human. The conditions noted are these: Homo sapiens, MCF7; Table 4. A digest of the protocol: as §1
For a further assay, the system named is A549. The experiment in a line: MTT cell proliferation assay, A549. It is filed as cell-based, human. The conditions noted are these: Homo sapiens, A549; read-out: Inhibition of cell proliferation (IC50). The protocol: (§2) MTT [3-(4,5-dimethylthiazol-2-yl)-2,5-diphenyltetrazolium bromide] incorporation based cell proliferation assay was performed as described previously (Reference). The cytotoxic efficacy of some analogs was evaluated in different cell lines by MTT cell proliferation assay kit (Roche Applied Sciences, Germany). The assay was carried out according to the instruction provided by the vendor. Briefly, in brief, equal numbers of cells was plated in 96-well flat-bottomed plates in 100 μl of medium and were exposed to different analogs selected from 1 to 63 at various concentrations up to 10 μg/ml for a period of three days. Vehicle control culture wells received only a maximum of 0.5% DMSO. Thereafter, 0.5 mg/ml of MTT reagent was added to each well and the microplate was incubated further for 4 h at 37° C. in presence of 5% CO2. Finally, the cells were solubilized by adding solubilizing solution and allowed to incubate at 37° C. overnight. After complete solubilization of the formazan crystals the absorbance was read at 540 nm in a microplate reader (BioRad, USA). The results (mean OD±SD) obtained from quadruplicate wells were used in calculation to determine the inhibition of cell proliferation (50% of inhibitory concentration, IC50) of the test compounds.

In another assay the test system is A375. Kind of assay: MTT cell proliferation assay, A375. It is filed as cell-based, human. The conditions noted are these: Homo sapiens, A-375; A375; read-out: Inhibition of cell proliferation (IC50). The protocol:
as §2

For another assay, the system named is B16. Kind of assay: MTT cell proliferation assay, B16. The conditions noted are these: Mus musculus, B16; read-out: Inhibition of cell proliferation (IC50). It is filed as cell-based, mouse. The protocol:
as §2

In the next assay the test system is A2058. The experiment in a line: In vitro antitumor activity, A2058. The conditions noted are these: Homo sapiens, read-out: Inhibition of cell proliferation (IC50). It is filed as cell-based. On the procedure: as §2, with “USA).” for “USA). The results (mean OD±SD) obtained from quadruplicate wells were used in calculation to determine the inhibition of cell proliferation (50% of inhibitory concentration, IC50) of the test compounds.”

The next assay relates to DU145. The experiment in a line: In vitro antitumor activity, DU145. The conditions noted are these: Homo sapiens, DU-145, read-out: Inhibition of cell proliferation (IC50). It is filed as cell-based. On the procedure: as §2, with “USA).” for “USA). The results (mean OD±SD) obtained from quadruplicate wells were used in calculation to determine the inhibition of cell proliferation (50% of inhibitory concentration, IC50) of the test compounds.”

The next assay concerns SKBR3. The experiment in a line: In vitro antitumor activity, SKBR3. It is filed as cell-based. The conditions noted are these: Homo sapiens, SK-BR-3, read-out: Inhibition of cell proliferation (IC50). The protocol: as §2, with “USA).” for “USA). The results (mean OD±SD) obtained from quadruplicate wells were used in calculation to determine the inhibition of cell proliferation (50% of inhibitory concentration, IC50) of the test compounds.”

The test system of a further assay is HT-29. Kind of assay: In vitro antitumor activity, HT-29. It is filed as cell-based. The conditions noted are these: Homo sapiens, read-out: Inhibition of cell proliferation (IC50). On the procedure:
as §2, with “USA).” for “USA). The results (mean OD±SD) obtained from quadruplicate wells were used in calculation to determine the inhibition of cell proliferation (50% of inhibitory concentration, IC50) of the test compounds.”

Assay [2] concerns Human umbilical vein endothelial cells (HUVEC). Kind of assay: In vitro capillary-like tube formation assay. It is filed as cell-based. The conditions noted are these: HUVEC on Cultrex, 1, 2.5 and 5 μg/ml, 16 h. On the procedure: In vitro capillary formation assay was performed with Human umbilical vein endothelial cells (HUVEC), cultured on 10 mg/ml basement membrane extract (BME—Cultrex®, R&D Systems, USA) bed. The protocol of in vitro endothelial tube formation assay was the same as described earlier with some modifications (Reference). Briefly, four hundred microliters of Cultrex was coated at 4° C. in each well of 24-well culture plate and allowed to gel at 37° C. for 1 h. HUVECs were plated at a density of 7.5×10^4 cells per well with 400 μl of DMEM supplemented with 10% fetal bovine serum and 4.5 g/l D-glucose. The cells were then treated with either 0.5% DMSO or different concentrations of LI-51255 for 16 hours. Pictures were taken under a Nikon Eclipse TS 100 microscope equipped with a Nikon Coolpix camera (FIG. 1B).

For another assay, the system named is AKT pathway. The experiment in a line: AKT pathway western immunoblot in MDA-MB-231 cells. The conditions noted are these: MDA-MB-231, 10 μg/ml, 0-240 min. It is filed as cell-based, human. The protocol:
Equal number of MDA-MB-231 human breast tumor cells (ER-) was plated in 25 cm^2 cell culture flasks. The cells treated with either 0.5% DMSO as vehicle or 10 μg/ml of LI-51255 for 0, 5, 10, 20, 30, 60, 120 and 240 min. The cells were lysed in cell lysis buffer.
In general terms: A western blot detects proteins with antibodies after separation by electrophoresis.

In assay [3] the test system is MDA-MB-231. Kind of assay: MDA-MB-231 clone (colony) formation in vitro. It is filed as cell-based, human. The conditions noted are these: 1.0, 1.5, 2.0, 2.5 μg/ml, 8 days. The protocol:
Inhibitory efficacy in clone formation of LI-51255 was tested by following the procedure described earlier with some modifications (Wu et al. 2005). Briefly, MDA-MB-231 cells were harvested and seeded into 6-well plates (100 cells/ml). The cells were allowed to grow for 4 days and thereafter, the cells were incubated with DMEM containing either 0.5% DMSO or 25 μg/ml AKBA or different concentrations (1.0, 1.5, 2.0, 2.5 μg/ml) of LI-51255 for further 8 days. Fresh medium containing test agents was replaced at every 24 h. Finally, the wells were washed three times with PBS and fixed in methanol for 15 min. The cells were stained with Giemsa stain and observed under microscope. The image of the stained wells were captured digitally (Kodak Image Station 4000MM, Carestream Health Inc., New Haven, Conn.) and number of colonies were counted and analyzed by using NIH Image J software.

Assay [4] relates to B16 murine melanoma cells. The experiment in a line: Cell cycle analysis by flow cytometry. The conditions noted are these: 24 h. It is filed as cell-based. On the procedure:
For flow cytometry, cells were harvested after the treatment period, washed with phosphate buffered saline (PBS), and adjusted the cell count at 2×10^6 cells per milliliter. The cells were fixed in 70% ethanol for 30 min at 4° C. Cells were then washed two times with PBS and stained with 0.5 μg/ml propidium iodide at 37° C. for 30 min and analyzed by flow cytometry. Data were acquired on a FACS Scan flow cytometer (Becton Dickinson) and analyzed by using the Cellquest software.
(In general: Flow cytometry measures light scatter and fluorescence of single cells or particles in a stream.)

As to `CC(=O)O[C@@H]1CC[C@@]2(C)C(CC[C@]3(C)C2C(=O)C=C2C4[C@@H](C)[C@H](C)CC[C@]4(C)CC[C@]23C)[C@@]1(C)C(=O)NCCN` (stereo partly shown) [Analog 21], the IC50 in the assay with MDA-MB-231 [1] amounted to 3.45 µg/mL (≈ 6.22 µM); in the assay with MCF-7, 13 µg/mL (≈ 23.4 µM); in the assay with A549, 6.83 µg/mL (≈ 12.3 µM); in the assay on A375 it was 3.53 µg/mL (≈ 6.36 µM); in the assay on B16 it was 4.35 µg/mL (≈ 7.84 µM); with A2058, 3.59 µg/mL (≈ 6.47 µM). The results for the IC50 in the assay on DU145, in the assay on SKBR3 and in the assay with HT-29 were 4.24 µg/mL (≈ 7.64 µM), 5.3 µg/mL (≈ 9.55 µM) and 8.87 µg/mL (≈ 16 µM), respectively. For the same molecule, the capillary-like tube formation result in [2] is reported as “dose dependent inhibition”. The “phosphorylated AKT (ser 473) protein expression” value in the assay with AKT pathway is “down regulating AKT phosphorylation”. Also, the MDA-MB-231 colony formation result in the assay on MDA-MB-231 [3] is “potent inhibition of clone formation”. Moreover, in assay [4], the “cell cycle progression” value was “interrupts cell cycle progression at sub G1 phase”.
